Test results: the Bradley open melting point set (2014)
Where “and” joins values, the source holds several entries; their conditions need not be identical. Equal entries are not always repeated.

SMILES | melting point
COC(=O)c1ccc(O)cc1 [Methyl 4-hydroxybenzoate] | 131 °C
CNC(=O)O/N=C(\C)SC [Methyl (1E)-N-[(methylcarbamoyl)oxy]ethanimidothioate] | 79 °C
CCCC(=O)OC [Methyl butyrate] | -95 °C
C=C(C)C(=O)OC [Methyl methacrylate] | -48 °C
COS(C)(=O)=O [Methyl methanesulfonate] | 20 °C
CCC(=O)OC [Methyl propionate] | -88 °C
N#CSCSC#N [Methylene bis(thiocyanate)] | 106 °C
CNN [Methylhydrazine] | -80 °C
CCN(CC)CCNC(=O)c1cc(Cl)c(N)cc1OC [Metoclopramide] [listing 1 of 2 here] | 147 °C
CCN(CC)CCNC(=O)c1cc(Cl)c(N)cc1OC [Metoclopramide] [listing 2 of 2 here] | 147 °C
Cc1ccccc1N1C(=O)c2cc(S(N)(=O)=O)c(Cl)cc2NC1C (centres undefined) [Metolazone] | 256 °C
Cc1ncc([N+](=O)[O-])n1CCO [Metronidazole] | 160 °C
Oc1ccc(OCc2ccccc2)cc1 [Monobenzone] | 114 °C
CC(=O)Nc1ccc(/C=C/c2ccc(NC(C)=O)cc2)cc1 [N,N'-[(E)-ethene-1,2-diyldibenzene-4,1-diyl]diacetamide] | 172 °C
O=C(Nc1ccc(/C=C/c2ccc(NC(=O)c3ccccc3)cc2)cc1)c1ccccc1 [N,N'-[(E)-ethene-1,2-diyldibenzene-4,1-diyl]dibenzamide] | 253 °C
Oc1ccccc1C=NCCN=Cc1ccccc1O [N,N'-bis(salicylidene)ethylenediamine] | 130 °C
CC(=O)NC1CCCCC(NC(C)=O)CCCC1 (centres undefined) [N,N'-cyclodecane-1,6-diyldiacetamide] | 256 °C
C=CC(=O)NCCNC(=O)C=C [N,N'-ethylenebisacrylamide] | 142 °C
O=P1(N(CCCl)CCCl)NCCCO1 (centres undefined) [N,N-Bis(2-chloroethyl)-1,3,2-oxazaphosphinan-2-amine 2-oxide] | 43 °C
CCN(CC)c1ccccc1 [N,N-Diethylaniline] | -38 °C
CN(C)c1ccc(N)cc1 [N,N-Dimethylbenzene-1,4-diamine] | 35 °C
CCN(C)C [N,N-Dimethylethanamine] | -140 °C
CN(C)C=O [N,N-Dimethylformamide] | -61 °C
CCN(CC)c1ccccc1 [N,N-diethylaniline] | -38 °C
CC(C)N(C=O)C(C)C [N,N-diisopropylformamide] | 10 °C

SMILES | melting point
CCN(C)C [N,N-dimethylethylamine] | -140 °C
CN(C)C=O [N,N-dimethylformamide] | -61 °C
NC(=S)Nc1cccc2ccccc12 [N-(1-naphthyl)thiourea] | 188 °C
COc1ccccc1NC(=O)/C=CC(=O)O [N-(2-methoxyphenyl)maleamic acid] | 144 °C
Cc1ccccc1CNC(=O)c1ccccc1 [N-(2-methylbenzyl)benzamide] | 118 °C
CC(C)(C)c1cnc(C(=O)Nc2cccc(Br)c2)cn1 [N-(3-bromophenyl)-5-tert-butylpyrazine-2-carboxamide] | 114 °C
CN(C)c1ccc(/C=N/c2ccccc2)cc1 [N-(4-Dimethylaminobenzylidene)aniline] | 99 °C and 100 °C
CCOc1ccc(NC(C)=O)cc1 [N-(4-Ethoxyphenyl)acetamide] | 134 °C
O=C1c2ccccc2C(=O)N1OCCCCBr [N-(4-bromobutoxy)phthalimide] | 71 °C
O=C1C=CC(=O)N1c1ccc(Br)cc1 [N-(4-bromophenyl)maleimide] | 129 °C
c1cc(ccc1NC(=O)/C=CC(=O)O)F [N-(4-fluorophenyl)maleamic acid] | 208 °C
CSCC[C@H](NC(C)=O)C(=O)O [N-Acetyl-L-methionine] | 106 °C
CSCC[C@H](NC(C)=O)C(=O)O [N-Acetylmethionine] | 106 °C
Cc1ccc(S(=O)(=O)NC2CCCCC2)cc1 [N-Cyclohexyl-4-methylbenzenesulfonamide] | 84.5 °C
CCNCC [N-Ethylethanamine] | -50 °C
CCC(C)=NO [N-Hydroxybutan-2-imine] | -29.5 °C
CNc1ccccc1 [N-Methylaniline] | -57 °C
CN1C(=O)CCC(N2C(=O)c3ccccc3C2=O)C1=O (centres undefined) [N-Methylthalidomide] | 159 °C
CCCCCCCC [N-Octane] | -56.8 °C
c1ccc(Nc2ccccc2)cc1 [N-Phenylaniline] | 53 °C
CCCN1C(=O)CCC(N2C(=O)c3ccccc3C2=O)C1=O (centres undefined) [N-Propylthalidomide] | 136 °C
CCCCCCCCCCCCC(=O)O [N-Tridecanoic Acid] | 44.5 °C
CC(=O)Nc1ccccc1NNc1ccccc1 [N-[2-(2-phenylhydrazino)phenyl]acetamide] | 168 °C
O=[N+]([O-])c1cccc2cccc(/C=N/c3ccccc3)c12 [N-[(1E)-(8-nitronaphthalen-1-yl)methylidene]aniline] | 115 °C
CC(=O)NS(=O)(=O)c1ccc(N)cc1 [N-[(4-Aminophenyl)sulfonyl]acetamide] | 182 °C

SMILES | melting point
C=CCNC(N)=S [N-allylthiourea] | 74 °C
CCCC[C@@H](NC(=O)OCc1ccccc1)C(=O)O [N-benzyloxycarbonyl-D-norleucine] | 57 °C
O=C(O)CC[C@H](NC(=O)OCc1ccccc1)C(=O)O [N-benzyloxycarbonyl-l-glutamic acid] | 119 °C
O=C(N[C@H](CO)Cc1ccccc1)OCc1ccccc1 [N-benzyloxycarbonyl-l-phenylalaninol] | 94 °C
CC(C)(C)OC(=O)N[C@H](Cc1cccc(F)c1)C(=O)O [N-boc-3-fluoro-d-phenylalanine] | 77 °C
CC(C)(C)OC(=O)N[C@@H](Cc1ccc(Br)cc1)C(=O)O [N-boc-4-bromo-L-phenylalanine] | 119 °C
C[C@@H](NC(=O)OC(C)(C)C)C(=O)O [N-boc-D-alanine] | 83 °C
CC(C)(C)OC(=O)N[C@H](Cc1ccccc1)C(=O)O [N-boc-D-phenylalanine] | 87 °C
CC(C)(C)OC(=O)N[C@@H](Cc1ccccc1)C(=O)O [N-boc-L-phenylalanine] | 87 °C
CC(C)(C)OC(=O)N1CCC[C@H]1CO [N-boc-L-prolinol] | 61 °C
CCCCOc1ccccc1 [N-butyl phenyl ether] | -19 °C
C=COCCCC [N-butyl vinyl ether] | -113 °C
O=C(NC(CO)C(=O)O)OCc1ccccc1 (centres undefined) [N-carbobenzoxy-serine] | 111 °C
Cc1ccc(S(=O)(=O)NC2CCCCC2)cc1 [N-cyclohexyl-p-toluenesulfonamide] | 88 °C
O=C(NC1CCCCC1)c1ccccc1 [N-cyclohexylbenzamide] | 162 °C
CCCCCCCCCCCCCCCCCCCCCC [N-docosane] | 45 °C
CCCCCCCCCCCCCCCCCCCC [N-eicosane] | 37 °C
CC(C)[C@H](NC(=O)OCC1c2ccccc2-c2ccccc21)C(=O)O [N-fmoc-L-valine] | 144 °C
CCCCCCCCCCCCCCCCC [N-heptadecane] | 22 °C
CCCCCCC [N-heptane] | -91 °C
CCCCCCCCCCCCCCCC [N-hexadecane] | 18 °C
CCCCCCOC(C)=O [N-hexyl acetate] | -80 °C
CCCCCCS(=O)(=O)CC#N [N-hexylsulfonylacetonitrile] | 42 °C
Cn1c2c(c3ccccc31)CCCC2 [N-methyl-1,2,3,4-tetrahydrocarbazole] | 53 °C
CNC(C)=O [N-methylacetamide] | 27 °C

SMILES | melting point
CNc1ccccc1 [N-methylaniline] | -57 °C
CCCCCCCCCCCCCCCCCCC [N-nonadecane] | 33 °C
CCCCCCCCC [N-nonane] | -53 °C
CCCCCCCC [N-octane] | -57 °C
CCCCCCCCc1ccccc1 [N-octylbenzene] | -36 °C
O=C(Nc1ccccc1)Nc1nnc(C(F)(F)F)s1 [N-phenyl-N'-[5-(trifluoromethyl)-1,3,4-thiadiazol-2-yl]urea] | 150 °C
O=C(O)c1ccccc1Nc1ccccc1 [N-phenylanthranilic acid] | 187 °C
O=C(O)CN1C(=O)c2ccccc2C1=O [N-phthaloylglycine] | 196 °C
C#CCON1C(=O)c2ccccc2C1=O [N-propargyloxyphthalimide] | 151 °C
C#CCN1C(=O)c2ccccc2C1=O [N-propargylphthalimide] | 150 °C
CCCCCCCCCCCCCCCCCCCCCCCCCCCCCC [N-triacontane] | 67 °C
CCCCCCCCCCCCCCCCCCCCCCC [N-tricosane] | 49 °C
CCCCCCCCCCCCCc1ccccc1 [N-tridecylbenzene] | 10 °C
CC(=O)Nc1ccccc1/C=C/c1ccccc1 [N-{2-[(E)-2-phenylethenyl]phenyl}acetamide] | 113 °C
NC(=O)c1cccnc1 [Nicotinamide] | 130 °C
O=C(O)c1cccnc1 [Nicotinic acid] | 237 °C
COC(=O)C1=C(C)NC(C)=C(C(=O)OC)C1c1ccccc1[N+](=O)[O-] [Nifedipine] | 173 °C
CCCCCCCCCCCCCCCCCCC [Nonadecane] | 33 °C
CCCCCCCCC [Nonane] | -53 °C
CC1C=CC=CCCC=CC=CC=CC=CC(OC2O[C@H](C)[C@@H](O)[C@H](N)[C@@H]2O)CC(O)C(C(=O)O)C(O)CC(=O)CC(O)C(O)CCC(O)CC(O)CC(O)CC(=O)OC(C)C(C)C1O (some centres undefined) [Nystatin] | 160 °C
Cc1cc(/C=C2\SC(=Nc3ccccc3)N=C2O)c(C)n1-c1ccc(F)cc1 [OSM-S-10] | 278 °C
Cc1c(C(=O)O)cnn1-c1ccccc1 [OSM-S-24] | 168 °C
Cc1cc(C=O)c(C)n1-c1cc(C(F)(F)F)cc(C(F)(F)F)c1 [OSM-S-36] | 95.5 °C
Cc1cc(/C=C2\S/C(=N\c3ccccc3)N(CC#N)C2=O)c(C)n1-c1ccc(C(F)(F)F)cc1 [OSM-S-43] | 73 °C
